Activity calls are given as the source filed them. No cut-off for these calls is given here.

We go through 13 compounds from ChEMBL document CHEMBL1146532, “Seco-prezizaane-type sesquiterpenes and an abietane-type diterpene from Illicium minwanense” (J Nat Prod, 2003).

The experiment concerns Cortical neurone. The experiment can be described thus: Induction of neurite outgrowth in rat cortical neurons at 10 uM after 4 days.

Consider `C[C@@H]1[C@H](O)C[C@]23OC(=O)C[C@]12C[C@]1(O)OC[C@]3(C)[C@@H]1C`, for which the result was inactive.
For `C[C@]12COC(=O)C[C@@]3(CC(=O)[C@]1(C)O)[C@]2(O)[C@@H](O)C[C@]3(C)O` the value was “inactive”; for `C[C@@H]1C[C@H](O)[C@@]2(O)[C@]13CC(=O)OC[C@@]2(C)[C@H](C)C(=O)C3`, “inactive”.
Consider `C[C@@H]1C(=O)C[C@]23CC(=O)OC[C@]1(C)[C@@]2(O)[C@@H](O)C[C@]3(C)O`, for which the result was inactive.
In the case of `C[C@@H]1C(=O)C=C2[C@]13CC(=O)O[C@H](C3)[C@@H](C)[C@@]2(C)CO` (relative stereo) it was “inactive”.
For `C[C@]12COC(=O)C[C@@]3(CC(=O)[C@]1(C)O)[C@]2(O)CC[C@]3(C)O` the value was “inactive”; for `C[C@@H]1[C@H](O)[C@H](O)[C@@]2(O)[C@]13CC(=O)OC[C@@]2(C)[C@H](C)C(=O)C3`, “inactive”; for `C[C@@H]1CC(=O)[C@@]2(O)[C@]13CC(=O)OC[C@@]2(C)[C@@](C)(O)C(=O)C3`, “inactive”.
Turning to `C[C@@H]1C[C@H](O)[C@@]23O[C@@]4(O)C[C@@]12CC(=O)OC[C@@]3(C)[C@H]4C` (relative stereo), the result was inactive.
With `C[C@@H]1C[C@H](O)[C@@]2(O)[C@]13CC(=O)O[C@H](C3)[C@@H](C)[C@@]2(C)CO`, the outcome was inactive.
In the case of `C[C@@H]1C[C@H](O)[C@@]2(O)[C@]13CC(=O)OC[C@@]2(C)[C@@](C)(O)C(=O)C3` it was “inactive”.
For `CO[C@@]12C[C@]34CC(=O)O[C@]3(C[C@@H](O)[C@H]4C)[C@](C)(CO1)[C@@H]2C` the value was “inactive”.
For `C[C@@H]1[C@H]2C[C@]3(CC(=O)O2)C(=CC(=O)[C@@H]3C)[C@]1(C)CO` (relative stereo) the value was “inactive”.
